According to PubChem BioAssay AID1259407 (Chemical Carcinogenesis Research Information System (CCRIS), 2018):
Entries after “also recorded” stand apart in the source; their conditions may differ. Activity calls are given as the source filed them. How the calls were made is not given here.

Test system: CCRIS mutagenicity, Ames/micronucleus/aberration tests
Assay: CCRIS mutagenicity studies

Measured: mutagenic call

Brc1c(Br)c(Br)c(Oc2c(Br)c(Br)c(Br)c(Br)c2Br)c(Br)c1Br
inactive: End Point: IN VITRO CHROMOSOMAL ABERRATIONS, Test System: CHO CELLS, Metabolic Activation: NONE inactive; negative; precipitation occurred at 160 and 500 ug/ml; also recorded: inactive; negative; precipitation occurred at 250 and 500 ug/ml | End Point: IN VITRO CHROMOSOMAL ABERRATIONS, Test System: CHO CELLS, Metabolic Activation: RAT, LIVER, S-9, AROCLOR 1254 inactive; negative; precipitation occurred at 250 and 500 ug/ml | Test System: AMES SALMONELLA TYPHIMURIUM, Strain/Indicator: TA98, Metabolic Activation: HAMSTER, LIVER, S-9, AROCLOR 1254, Method: PREINCUBATION inactive; negative | Test System: AMES SALMONELLA TYPHIMURIUM, Strain/Indicator: TA98, Metabolic Activation: NONE, Method: PREINCUBATION inactive; negative | Test System: AMES SALMONELLA TYPHIMURIUM, Strain/Indicator: TA98, Metabolic Activation: RAT LIVER S-9, PHENOBARBITAL AND BETA-NAPHTHOFLAVONE, Method: PREINCUBATION inactive; negative | Test System: AMES SALMONELLA TYPHIMURIUM, Strain/Indicator: TA98, Metabolic Activation: RAT, LIVER, S-9, AROCLOR 1254, Method: PREINCUBATION inactive; negative | Test System: AMES SALMONELLA TYPHIMURIUM, Strain/Indicator: TA100, Metabolic Activation: HAMSTER, LIVER, S-9, AROCLOR 1254, Method: PREINCUBATION inactive; negative | Test System: AMES SALMONELLA TYPHIMURIUM, Strain/Indicator: TA100, Metabolic Activation: NONE, Method: PREINCUBATION inactive; negative | Test System: AMES SALMONELLA TYPHIMURIUM, Strain/Indicator: TA100, Metabolic Activation: RAT LIVER S-9, PHENOBARBITAL AND BETA-NAPHTHOFLAVONE, Method: PREINCUBATION inactive; negative | Test System: AMES SALMONELLA TYPHIMURIUM, Strain/Indicator: TA100, Metabolic Activation: RAT, LIVER, S-9, AROCLOR 1254, Method: PREINCUBATION inactive; negative | Test System: AMES SALMONELLA TYPHIMURIUM, Strain/Indicator: TA1535, Metabolic Activation: HAMSTER, LIVER, S-9, AROCLOR 1254, Method: PREINCUBATION inactive; negative | Test System: AMES SALMONELLA TYPHIMURIUM, Strain/Indicator: TA1535, Metabolic Activation: NONE, Method: PREINCUBATION inactive; negative | Test System: AMES SALMONELLA TYPHIMURIUM, Strain/Indicator: TA1535, Metabolic Activation: RAT LIVER S-9, PHENOBARBITAL AND BETA-NAPHTHOFLAVONE, Method: PREINCUBATION inactive; negative | Test System: AMES SALMONELLA TYPHIMURIUM, Strain/Indicator: TA1535, Metabolic Activation: RAT, LIVER, S-9, AROCLOR 1254, Method: PREINCUBATION inactive; negative | Test System: AMES SALMONELLA TYPHIMURIUM, Strain/Indicator: TA1537, Metabolic Activation: HAMSTER, LIVER, S-9, AROCLOR 1254, Method: PREINCUBATION inactive; negative | Test System: AMES SALMONELLA TYPHIMURIUM, Strain/Indicator: TA1537, Metabolic Activation: NONE, Method: PREINCUBATION inactive; negative | Test System: AMES SALMONELLA TYPHIMURIUM, Strain/Indicator: TA1537, Metabolic Activation: RAT LIVER S-9, PHENOBARBITAL AND BETA-NAPHTHOFLAVONE, Method: PREINCUBATION inactive; negative | Test System: AMES SALMONELLA TYPHIMURIUM, Strain/Indicator: TA1537, Metabolic Activation: RAT, LIVER, S-9, AROCLOR 1254, Method: PREINCUBATION inactive; negative | Test System: CHO/HGPRT, Strain/Indicator: CHO/GIEMSA, Metabolic Activation: NONE, Method: STANDARD PLATE inactive; negative | Test System: CHO/HGPRT, Strain/Indicator: CHO/GIEMSA, Metabolic Activation: RAT, LIVER, S-9, AROCLOR 1254, Method: STANDARD PLATE inactive; negative | Test System: E.COLI, Strain/Indicator: WP2UVRA/PKM101, Metabolic Activation: NONE, Method: PREINCUBATION inactive; negative | Test System: E.COLI, Strain/Indicator: WP2UVRA/PKM101, Metabolic Activation: RAT LIVER S-9, PHENOBARBITAL AND BETA-NAPHTHOFLAVONE, Method: PREINCUBATION inactive; negative | Test System: MOUSE LYMPHOMA, Strain/Indicator: L5178Y (TK+/TK-), Metabolic Activation: NONE, Method: SUSPENSION/PLATE inactive; negative | Test System: MOUSE LYMPHOMA, Strain/Indicator: L5178Y (TK+/TK-), Metabolic Activation: RAT, LIVER, S-9, AROCLOR 1254, Method: SUSPENSION/PLATE inactive; negative

CC(Br)c1ccccc1 (stereo unspecified)
inactive: Test System: AMES SALMONELLA TYPHIMURIUM, Strain/Indicator: TA98, Metabolic Activation: NONE, Method: STANDARD PLATE inactive; negative | Test System: AMES SALMONELLA TYPHIMURIUM, Strain/Indicator: TA100, Metabolic Activation: NONE, Method: STANDARD PLATE inactive; negative
